Laboratory results: PubChem BioAssay (NCI)
Where “and” joins values, the source holds several entries; their conditions need not be identical. Equal entries are not always repeated.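 96-well plates; 48 h exposure; 5 concentrations. Endpoints by linear interpolation between flanking doses. Not reached: highest tested concentration assigned. Here, GI50 denotes the concentration required for 50% inhibition of growth. The concentration for full growth arrest is given as TGI.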

How the values were obtained:
Assay in all cases: growth of human tumour cells (NCI), 48 h
HCT-15 colon = system: HCT-15 colon
LOX IMVI melanoma = system: LOX IMVI melanoma
MALME-3M melanoma = system: MALME-3M melanoma
NCI-H226 lung = system: NCI-H226 lung
NCI-H23 lung = system: NCI-H23 lung
SF-268 CNS = system: SF-268 CNS
SK-MEL-2 melanoma = system: SK-MEL-2 melanoma
SW-620 colon = system: SW-620 colon
UO-31 renal = system: UO-31 renal
HOP-92 NSCLC = system: HOP-92 NSCLC

Row | Structure (SMILES) | TGI (HCT-15 colon) [µM] | TGI (LOX IMVI melanoma) [µM] | TGI (MALME-3M melanoma) | TGI (NCI-H226 lung) | TGI (NCI-H23 lung) [µM] | TGI (SF-268 CNS) [µM] | TGI (SK-MEL-2 melanoma) [µM] | TGI (SW-620 colon) [µM] | TGI (UO-31 renal) | TGI (HOP-92 NSCLC) [µM] | GI50 (SK-MEL-2 melanoma) | GI50 (HOP-92 NSCLC) [µM] | GI50 (LOX IMVI melanoma) | GI50 (MALME-3M melanoma) [µM] | GI50 (NCI-H226 lung) | GI50 (NCI-H23 lung) [µM] | GI50 (SF-268 CNS) [µM] | GI50 (UO-31 renal) [µM]
1 | ON=C(CC(O)(C(F)(F)Cl)C(F)(F)Cl)CC(O)(C(F)(F)Cl)C(F)(F)Cl | > 10 | > 10 | > 10 µM | > 10 µM | > 10 | > 10 | 7.84 | > 10 | > 10 µM |  |  |  |  |  |  |  |  | 
2 | O=C1CC(=O)NC(=NNS(=O)(=O)c2ccc(Cl)cc2)N1 | > 100 |  | > 100 µM | > 100 µM | > 100 | > 100 | > 100 | > 100 | > 100 µM | > 100 |  |  |  |  |  |  |  | 
3 | CCCCCCCCCCCCCCCCCCOCC(O)COP(=O)(O)OCC1OC(n2ccc(N)nc2=O)C(O)C1O (stereo not given) | 47.9 | 31.1 | > 100 µM | > 100 µM | > 100 | 49.8 |  | > 100 |  | 71.8 |  |  |  |  |  |  |  | 
4 | CCOC(=O)c1nnc2c(C#N)c(-c3ccccc3)c(C)n2c1N | > 100 | > 100 | 65.2 µM |  | > 100 | > 100 | > 100 | > 100 | > 100 µM |  |  |  |  |  |  |  |  | 
5 | CC(=O)N(C(C)=O)c1cc2c3c(c1)CCCN3CCC2 | > 10 | > 10 | > 10 µM | > 10 µM | > 10 | > 10 | > 10 | > 10 |  | > 10 |  |  |  |  |  |  |  | 
6 | Cc1cccc(N/C(Sc2ccccc2)=C(/C(Cl)=C(Cl)Cl)[N+](=O)[O-])c1 | 29.4 |  | 30.2 µM | 35.2 µM | 37 | 34.2 | > 100 | 31.1 | 29.9 µM |  |  |  |  |  |  |  |  | 
7 | Cn1c(N)nc(-c2ccc(Cl)cc2)c1SSc1c(-c2ccc(Cl)cc2)nc(N)n1C | 3.44 |  | 4.57 µM | 83.5 µM | 3.37 | 7.1 | 32.1 | 4.03 | 3.24 µM | 3.7 |  |  |  |  |  |  |  | 
8 | CCOC1CC(C)N(C(=O)c2ccccc2)O1 (stereo not given) |  |  |  | > 100 µM | > 100 | > 100 |  | > 100 | > 100 µM | > 100 |  |  |  |  |  |  |  | 
9 | COc1ccccc1C1c2cc3c(cc2OC(N2CCOCC2)C1C)OCO3 (stereo not given) | 41.5 | 35.2 |  |  | 58.7 | 40.9 | 37.3 | 50.3 | 42.8 µM |  |  |  |  |  |  |  |  | 
10 | CC(Oc1ccc(OCC2CCCCC2)cc1)C(=O)NCc1ccco1 (stereo not given) | > 100 | 54.3 | 58.7 µM | 94 µM |  | > 100 | 59.3 |  | 92.3 µM |  |  |  |  |  |  |  |  | 
11 | Cc1nc2sccn2c1/C=C1/C(=O)Nc2cccc(Cl)c21 | > 100 | > 100 | > 100 µM |  | > 100 | > 100 | > 100 | > 100 | > 100 µM | > 100 |  |  |  |  |  |  |  | 
12 | NC(=O)NC12CC3CC(CC(F)(C3)C1)C2 |  | > 100 | > 100 µM |  | > 100 |  | > 100 | > 100 | > 100 µM | > 100 |  |  |  |  |  |  |  | 
13 | Cc1ccc(N(C)S(=O)(=O)c2ccccc2[N+](=O)[O-])cc1 | > 100 | > 100 | > 100 µM | > 100 µM | > 100 | > 100 | > 100 | > 100 | > 100 µM |  |  |  |  |  |  |  |  | 
14 | CCOC(=O)NN(C(=O)OCC)c1c(C)cc(C)cc1C | > 100 | > 100 | > 100 µM | > 100 µM | > 100 | > 100 | > 100 | > 100 | > 100 µM |  |  |  |  |  |  |  |  | 
15 | O=C(NNC(=O)c1csc(NC(=S)NC2CCCCC2)n1)c1ccccc1 | 13 | 22 | 43.2 µM | 49.5 µM | 40.6 | > 100 | 45 | 29.5 | 28.3 µM |  |  |  |  |  |  |  |  | 
16 | COc1cc2c(c(OC)c1OC)-c1ccc(SC)cc1C(O)CC2 (stereo not given) |  | 74.1 | > 100 µM |  | > 100 | 11.6 | > 100 | > 100 |  | > 100 | 27.4 µg/mL |  |  |  |  |  |  | 
17 | COc1ccc2nc3cccc([N+](=O)[O-])c3c(NCCCO)c2c1 |  |  | 0.00344 µM and 0.0202 µM | 0.0803 µM and 0.0618 µM | 0.05 |  | 0.00376 | 0.0323 | 0.00749 µM and 0.0237 µM | 0.0565 | 0.00162 µM | 0.0154 | 0.0085 µM and 0.0471 µM | 0.00116 | 0.0181 µM and 0.0138 µM | 0.0117 | 0.00101 | 0.0017
18 | CC[C@@]1(O)C(=O)OCc2c1cc1n(c2=O)Cc2c-1nc1ccccc1c2/C=N/NC(=O)c1ccc(N)cc1 | > 100 | 0.5 | > 87.8 µM | 0.528 µM | 1.48 | > 100 | > 100 | > 100 | 25.6 µM |  |  |  |  |  |  |  |  | 
19 | Cc1ccc(N/C(SCc2ccccc2)=C(\C(Cl)=C(Cl)Cl)[N+](=O)[O-])c(C)c1 | 34.9 |  | 47.5 µM | > 100 µM | 38.5 | 29.8 | > 100 | 33.3 | 63.5 µM |  |  |  |  |  |  |  |  | 
20 | CC(=O)OC(Cc1c(O)c2c(C)cccc2oc1=O)C(C)(C)O (stereo not given) | > 100 | > 100 | > 100 µM | > 100 µM | > 100 | > 100 | > 100 | > 100 | > 100 µM |  |  |  |  |  |  |  |  | 
21 | CC1=C(C(=O)N[C@@H](CC(C)C)C(=O)O)N2C(=O)[C@@H](NC(=O)C(N)c3ccccc3)[C@H]2SC1 (stereo not given in full) | > 100 | > 100 | > 100 µM | > 100 µM |  | > 100 | > 100 | > 100 |  | > 100 |  |  |  |  |  |  |  | 
22 | Nc1nc(-c2ccco2)cc(-c2ccc(CO)o2)n1 | > 100 | > 100 | > 100 µM | > 100 µM | > 100 | > 100 | > 100 | > 100 | > 100 µM |  |  |  |  |  |  |  |  | 
23 | C#CC1(O)CCCCCCCCC2(CCCCCCCC1)OCCO2 | 39.1 | 38.1 | 34.3 µM | 34 µM | 33.9 | 34.2 | 27.9 | 34.7 |  | 33.3 |  |  |  |  |  |  |  | 
24 | N#CNC(=NCCc1c[nH]c2ccccc12)Oc1ccccc1 | > 100 | > 100 |  | > 100 µM | > 100 | > 100 |  | > 100 | > 100 µM |  |  |  |  |  |  |  |  | 
